Here are results for 36 compounds from the SangsterLogP compilation.

By logD is commonly meant the decadic logarithm of the distribution of all forms, ionised or not, between an organic phase and buffer at a given pH.

A short description of this data set: method code SF-AS, from DOI: 10.1021/jm00114a020, PMID: 1920359. As to conditions: pH 7.4.

`COCC(=O)OCCCS(=O)(=O)c1ccc(S(N)(=O)=O)s1`: the logD is -0.14.

Take `NS(=O)(=O)c1ccc(SCCCCO)c(F)c1`: the logD came out at 1.28.

For `NS(=O)(=O)c1ccc(SCCCCO)cc1`, the logD is 0.93.

Regarding `NS(=O)(=O)c1ccc(S(=O)(=O)CCCCO)cc1`, the logD was -0.26.

Consider `NS(=O)(=O)c1ccc(S(=O)(=O)CCCCO)s1`, for which the log distribution coefficient (logD) is -0.34.

`NS(=O)(=O)c1ccc(SCCCO)s1` had a logD of 0.85.

Consider `COC(=O)c1cc(S(N)(=O)=O)ccc1S(=O)(=O)CCCO`, for which the logD is -0.3.

Regarding `CC(=O)OCCCCCc1ccc(S(N)(=O)=O)cc1`, the logD turned out to be 1.86.

`NS(=O)(=O)c1ccc(S(=O)(=O)CCCO)cc1` yielded a logD of -0.64.

Compound `NS(=O)(=O)c1ccc(S(=O)(=O)CCCO)c([N+](=O)[O-])c1` had a logD of -0.05.

On to `NS(=O)(=O)c1ccc(S(=O)(=O)CCCO)c(F)c1`, for which the logD is -0.41.

The compound `NS(=O)(=O)c1ccc(SCCO)cc1` gave a logD of 0.36.

Take `CC(C)(O)CCSc1ccc(S(N)(=O)=O)cc1`: the logD came to 1.4.

Consider `CC(C)(O)CCS(=O)(=O)c1ccc(S(N)(=O)=O)cc1`, for which the logD was -0.09.

Compound `NS(=O)(=O)c1ccc(SCCCO)c(Cl)c1` displayed a logD of 1.59.

The compound `NS(=O)(=O)c1ccc(SCCCO)c([N+](=O)[O-])c1` had a logD of 0.96.

Compound `NS(=O)(=O)c1ccc(SCCO)s1` displayed a pH-dependent lipophilicity (logD) of 0.38.

`COC(=O)c1cc(S(N)(=O)=O)ccc1S(=O)(=O)CCO`: the log distribution coefficient (logD) is -0.47.

As for `NS(=O)(=O)c1ccc(CCCCCO)cc1`, the logD was found to be 1.04.

Regarding `CC(=O)OCCCS(=O)(=O)c1ccc(S(N)(=O)=O)s1`, the logD turned out to be 0.17.

The compound `NS(=O)(=O)c1ccc(S(=O)(=O)CCCO)s1` yielded a logD of -0.36.

`NS(=O)(=O)c1ccc(CCCO)cc1` had a logD of 0.17.

In turn, `NS(=O)(=O)c1ccc(S(=O)(=O)CCO)c(F)c1` yielded a logD of -0.6.

On to `Nc1cc(S(N)(=O)=O)ccc1S(=O)(=O)CCO`, for which the logD is -0.6.

For the compound `NS(=O)(=O)c1ccc(S(=O)(=O)CCO)s1`, the logD was -0.54.

In turn, `NS(=O)(=O)c1ccc(SCCO)c(F)c1` had a pH-dependent lipophilicity (logD) of 0.72.

`NS(=O)(=O)c1ccc(S(=O)(=O)CCO)cc1` yielded a logD of -0.85.

As for `CC(=O)OCCCc1ccc(S(N)(=O)=O)cc1`, the logD was 0.98.

`NS(=O)(=O)c1ccc(SCCCCCO)cc1` yielded a logD of 1.04.

Compound `NS(=O)(=O)c1ccc(SCCCO)c(F)c1` yielded a logD of 0.99.

With `NS(=O)(=O)c1ccc(CCCCO)cc1`, the logD was 0.57.

As to `Nc1cc(S(N)(=O)=O)ccc1S(=O)(=O)CCCO`, the logD was -0.48.

The compound `NS(=O)(=O)c1ccc(SCCCO)cc1` showed a logD of 0.8.

`CC(=O)OCCS(=O)(=O)c1ccc(S(N)(=O)=O)s1` registered a logD of 0.11.

In the case of `NS(=O)(=O)c1ccc(SCCO)c([N+](=O)[O-])c1`, the logD amounted to 0.38.

Compound `NS(=O)(=O)c1ccc(SCCCCO)s1` displayed a logD of 0.95.
